In PubChem BioAssay (NCI):
Where “and” joins values, the source holds several entries; their conditions need not be identical. Equal values may be shown once.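 All cell lines were grown in 96-well plates and treated with compound for 48 hours. GI50: concentration for 50% inhibition of growth. TGI is the concentration that stops growth completely.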

Tests used:
Assay in all cases: NCI anticancer screen, dose series, 48 h
[1] = test system: SK-MEL-2 melanoma
[2] = test system: MDA-N
[3] = test system: MCF7 breast
[4] = test system: CAKI-1 renal
[5] = test system: HCT-116 colon
[6] = test system: K-562 leukemia
[7] = test system: ACHN renal
[8] = test system: SF-539 CNS
[9] = test system: HT29 colon
[10] = test system: EKVX NSCLC
[11] = test system: SW-620 colon
[12] = test system: BT-549 breast
[13] = test system: SK-OV-3 ovarian
[14] = test system: NCI-H226 lung
[15] = test system: UACC-62 melanoma
[16] = test system: SF-268 CNS
[17] = test system: DU-145 prostate

Work on CN(/N=C/c1ccccn1)C1=NCCCCN1 yielded a TGI [1] greater than 100 µM, a TGI [2] greater than 100 µM and a TGI [3] greater than 100 µM. For the same compound, the TGI [4] was greater than 100 µM, the TGI [5] was greater than 100 µM and the TGI [6] was greater than 100 µM. For the same compound, the TGI [7] was greater than 100 µM, the TGI [8] was greater than 100 µM and the TGI [9] was greater than 100 µM. The TGI [10] was greater than 100 µM, the TGI [11] was greater than 100 µM and the TGI [12] was greater than 100 µM. The TGI [13] was greater than 100 µM, the TGI [14] was greater than 100 µM and the TGI [15] was greater than 100 µM. It also gave a TGI [16] greater than 100 µM.

Work on O=c1c2cccnc2cc(-c2ccccc2)n1CCO yielded a TGI [1] greater than 100 µM, a TGI [2] greater than 100 µM and a TGI [3] greater than 100 µM. For the same compound, the TGI [5] was greater than 100 µM, the TGI [6] was greater than 100 µM and the TGI [7] was greater than 100 µM. For the same compound, the TGI [9] was greater than 100 µM, the TGI [10] was greater than 100 µM and the TGI [11] was greater than 100 µM. The TGI [12] was greater than 100 µM, the TGI [13] was greater than 100 µM and the TGI [14] was greater than 100 µM. The TGI [15] was greater than 100 µM, the TGI [16] was greater than 100 µM and the TGI [17] was greater than 100 µM.

Compound CCCCCCCCC/C=C1\CC(CO)(COC(=O)C2CCCCC2)OC1=O (stereo unspecified) has a TGI [1] of 43.1 µM, a TGI [2] of 38.8 µM and a TGI [3] of 43.9 µM. It also gave a TGI [4] of 49.3 µM, a TGI [5] of 44.5 µM and a TGI [6] greater than 100 µM. The TGI [7] was 69.1 µM, the TGI [9] was 42 µM and the TGI [10] was 39.1 µM. It also gave a TGI [11] of 33.1 µM, a TGI [12] of 36.2 µM and a TGI [13] of 70.8 µM. The TGI [14] was 74.4 µM, the TGI [15] was 46.9 µM and the TGI [16] was 46.7 µM. It also gave a TGI [17] of 21.5 µM.

Work on CC1=NN(C(=O)c2ccccc2O)C(=O)/C1=C/c1ccccc1O yielded a TGI [1] greater than 91.4 µM, a TGI [2] greater than 100 µM and a TGI [3] greater than 64.2 µM. It also gave a TGI [4] greater than 27.3 µM, a TGI [5] greater than 29.9 µM and a TGI [6] greater than 100 µM. The TGI [7] was 33.1 µM, the TGI [8] was 2.45 µM and the TGI [9] was greater than 100 µM. For the same compound, the TGI [10] was 41.6 µM, the TGI [11] was greater than 100 µM and the TGI [12] was 50 µM. For the same compound, the TGI [14] was 16.4 µM, the TGI [15] was 7.2 µM and the TGI [16] was greater than 75.4 µM.

For CCOC(=O)c1c(-c2ccc(O)c(OC)c2)c(C#N)c(=S)n(C2OC(COC(C)=O)C(OC(C)=O)C(OC(C)=O)C2OC(C)=O)c1-c1ccccc1 (stereo unspecified), the TGI [2] was greater than 100 µM, the GI50 [3] was 22.4 µM and 63.3 µM and the TGI [3] was greater than 100 µM. For the same compound, the TGI [4] was greater than 100 µM, the TGI [5] was greater than 100 µM and the GI50 [6] was 49.1 µM and > 100 µM. For the same compound, the TGI [6] was greater than 100 µM, the TGI [7] was greater than 100 µM and the TGI [9] was greater than 100 µM. The TGI [10] was greater than 100 µM, the TGI [11] was greater than 100 µM and the TGI [12] was greater than 100 µM. The GI50 [15] was 45.4 µM and > 100 µM, the TGI [15] was greater than 100 µM and the TGI [16] was greater than 100 µM. For the same compound, the TGI [17] was greater than 100 µM.

In the case of COC1=C(N2CC2)C(=O)c2nc3n(c2C1=O)CCC3, the TGI [2] is reported as 2.89 µM, the TGI [3] is reported as 4.08 µM and the TGI [5] is reported as 1.93 µM. For the same compound, the TGI [7] was 0.851 µM, the TGI [8] was 7.79 µM and the TGI [9] was 1.57 µM. It also gave a TGI [11] of 2.19 µM, a TGI [12] of 2.39 µM and a TGI [13] of 3.04 µM. It also gave a TGI [14] of 4.76 µM, a TGI [15] of 3.12 µM and a TGI [16] of 5.23 µM. It also gave a TGI [17] of 1.36 µM.

For CCOC(=O)C(NC(=O)CC(C)C)(Nc1ccc(S(=O)(=O)Nc2nc(C)cc(C)n2)cc1)C(F)(F)F (stereo unspecified), the TGI [1] was greater than 100 µM, the TGI [2] was greater than 100 µM and the TGI [4] was greater than 100 µM. The TGI [5] was greater than 100 µM, the TGI [6] was greater than 100 µM and the TGI [7] was greater than 100 µM. The TGI [8] was greater than 100 µM, the TGI [9] was greater than 100 µM and the TGI [10] was greater than 100 µM. It also gave a TGI [11] greater than 100 µM, a TGI [12] greater than 100 µM and a TGI [13] greater than 100 µM. For the same compound, the TGI [14] was greater than 100 µM, the TGI [15] was greater than 100 µM and the TGI [16] was greater than 100 µM. It also gave a TGI [17] greater than 100 µM.

For COC(=O)C(=O)C(C(=O)C(=O)Nc1ccccc1C(C)=O)c1nc2ccc(C(=O)c3ccccc3)cc2[nH]c1=O (stereo unspecified), the TGI [1] was greater than 100 µM, the TGI [2] was greater than 100 µM and the TGI [3] was greater than 100 µM. It also gave a TGI [4] greater than 100 µM, a TGI [5] greater than 100 µM and a TGI [6] greater than 100 µM. The TGI [7] was greater than 100 µM, the TGI [8] was greater than 100 µM and the TGI [9] was greater than 100 µM. For the same compound, the TGI [10] was greater than 100 µM, the TGI [12] was greater than 100 µM and the TGI [13] was greater than 100 µM. The TGI [14] was greater than 100 µM, the TGI [15] was greater than 100 µM and the TGI [16] was greater than 100 µM.

With CCOC(=O)/C(C#N)=C1\c2c([nH]c(=S)[nH]c2=O)Oc2ccc3ccccc3c21 the TGI [1] was 41 µM, the TGI [2] was greater than 100 µM and the TGI [3] was greater than 100 µM. It also gave a TGI [4] greater than 100 µM, a TGI [5] greater than 100 µM and a TGI [6] greater than 100 µM. It also gave a TGI [7] greater than 100 µM, a TGI [9] greater than 100 µM and a TGI [10] greater than 100 µM. It also gave a TGI [11] of 12.2 µM, a TGI [12] greater than 100 µM and a TGI [13] greater than 100 µM. For the same compound, the TGI [14] was greater than 100 µM, the TGI [15] was greater than 100 µM and the TGI [16] was greater than 100 µM. It also gave a TGI [17] greater than 100 µM.

Compound CN(C(=O)Cc1ccc(Cl)c(Cl)c1)[C@@H]1CCCC[C@H]1[N+]1(C)CC=CC1 has a TGI [1] greater than 100 µM, a TGI [2] greater than 100 µM and a TGI [3] greater than 100 µM. For the same compound, the TGI [4] was greater than 100 µM, the TGI [5] was greater than 100 µM and the TGI [6] was greater than 100 µM. It also gave a TGI [7] greater than 100 µM, a TGI [9] greater than 100 µM and a TGI [10] greater than 100 µM. For the same compound, the TGI [11] was greater than 100 µM, the TGI [12] was greater than 100 µM and the TGI [13] was greater than 100 µM. It also gave a TGI [14] greater than 100 µM, a TGI [15] greater than 100 µM and a TGI [16] greater than 100 µM. For the same compound, the TGI [17] was greater than 100 µM.

In the case of COc1ccc2c(c1)N=C1CSC(c3cccc(Br)c3)N1C2 (stereo unspecified), the TGI [1] is reported as 36.3 µM, the TGI [2] is reported as 34.5 µM and the TGI [3] is reported as 25.2 µM. The TGI [4] was 59.3 µM, the TGI [5] was 28.6 µM and the TGI [6] was 67.1 µM. It also gave a TGI [7] of 31 µM, a TGI [8] of 41.4 µM and a TGI [9] of 31.9 µM. It also gave a TGI [10] of 33.8 µM, a TGI [11] greater than 100 µM and a TGI [12] of 32.4 µM. The TGI [13] was 48 µM, the TGI [14] was 43.5 µM and the TGI [15] was 31.8 µM. It also gave a TGI [16] greater than 100 µM.

CCN(CC)C(=S)SNCc1ccc(S(N)(=O)=O)cc1 showed a TGI [1] of 39.5 µM, a TGI [2] of 29 µM and a TGI [4] of 31.3 µM. It also gave a TGI [5] of 27.4 µM, a TGI [6] greater than 100 µM and a TGI [7] of 29.6 µM. It also gave a TGI [8] of 32.1 µM, a TGI [9] of 21 µM and a TGI [10] of 43.5 µM. It also gave a TGI [11] greater than 50.1 µM, a TGI [12] of 33 µM and a TGI [13] greater than 86 µM. For the same compound, the TGI [14] was greater than 63.2 µM, the TGI [15] was 83.1 µM and the TGI [16] was 26.7 µM. It also gave a TGI [17] of 33.4 µM.
